#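 96-well plates; 48 h exposure; 5 concentrations. Endpoints by linear interpolation between flanking doses. Not reached: highest tested concentration assigned. Here, GI50 denotes the concentration required for 50% inhibition of growth.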 Activity calls are given as the source filed them. Cut-off read from the data, not from the text of the source: active = GI50 up to about 1.1 µM and inactive = higher.
# Columns and labels:
# Test in all cases: DTP human tumour cell line panel, 48 h
# [1] = system: CAKI-1
# [2] = system: COLO 205
# [3] = system: DMS-114
# [4] = system: DMS-273
# [5] = system: HCC 2998
# [6] = system: HCT-116
# [7] = system: HCT-15
# [8] = system: HL-60
# [9] = system: HOP-18
# [10] = system: HOP-62
# [11] = system: HOP-92
# [12] = system: HT-29
# [13] = system: KM-20L2
# [14] = system: KM12
# [15] = system: LOX IMVI
# [16] = system: LXFL 529
# [17] = system: M14
# [18] = system: M19-MEL
# [19] = system: Malme-3M
# [20] = system: NCI-H226
# [21] = system: NCI-H460
# [22] = system: OVCAR-3
# [23] = system: OVCAR-4
# [24] = system: OVCAR-5
# [25] = system: OVCAR-8
# [26] = system: SF-295
# [27] = system: SK-MEL-2
# [28] = system: SN12C
# [29] = system: SNB-19
# [30] = system: SR
# [31] = system: SW-620
# [32] = system: UACC-257
# [33] = system: UO-31
# [34] = system: 786-0
# [35] = system: A498
# [36] = system: A549
# [37] = system: ACHN
# [38] = system: BT-549
# [39] = system: CCRF-CEM
# [40] = system: DU-145
# [41] = system: EKVX
# [42] = system: Hs-578T
# [43] = system: IGROV-1
# [44] = system: K562
# [45] = system: MCF7
# [46] = system: MDA-MB-231
# [47] = system: MDA-MB-435
# [48] = system: MDA-N
# [49] = system: MOLT-4
# [50] = system: NCI-H23
# [51] = system: NCI-H522
# [52] = system: NCI/ADR-RES
# [53] = system: PC-3
# [54] = system: RPMI-8226
# [55] = system: RXF 393
# [56] = system: SF-268
# [57] = system: SF-539
# [58] = system: SK-MEL-28
# [59] = system: SK-MEL-5
# [60] = system: SK-OV-3
# [61] = system: SNB-75
# [62] = system: T47D
# [63] = system: TK-10
# [64] = system: U-251
# [65] = system: UACC-62
# [66] = system: DLD-1
# [67] = system: SNB-78
smiles,measurement,setting,value
COc1ccc(C(=O)C(C(=O)CCC(=O)Nc2ccc(C)c(C)c2)c2ccc(OC)cc2)cc1 (stereo not drawn),GI50,[1],> 100 µM (inactive)
same,GI50,[2],> 100 µM (inactive)
same,GI50,[3],> 100 µM (inactive)
same,GI50,[4],> 100 µM (inactive)
same,GI50,[5],> 100 µM (inactive)
same,GI50,[6],> 100 µM (inactive)
same,GI50,[7],> 100 µM
same,GI50,[8],> 100 µM (inactive)
same,GI50,[9],> 100 µM (inactive)
same,GI50,[10],> 100 µM (inactive)
same,GI50,[11],48.9 µM (inactive)
same,GI50,[12],> 100 µM (inactive)
same,GI50,[13],> 100 µM (inactive)
same,GI50,[14],> 100 µM (inactive)
same,GI50,[15],> 100 µM (inactive)
same,GI50,[16],> 100 µM (inactive)
same,GI50,[17],> 100 µM (inactive)
same,GI50,[18],> 100 µM (inactive)
same,GI50,[19],> 100 µM (inactive)
same,GI50,[20],> 100 µM (inactive)
same,GI50,[21],> 100 µM (inactive)
same,GI50,[22],> 100 µM (inactive)
same,GI50,[23],> 100 µM (inactive)
same,GI50,[24],> 100 µM (inactive)
same,GI50,[25],> 100 µM (inactive)
same,GI50,[26],> 100 µM (inactive)
same,GI50,[27],> 100 µM (inactive)
same,GI50,[28],> 100 µM (inactive)
same,GI50,[29],> 10 µM (inactive)
same,GI50,[30],> 100 µM (inactive)
same,GI50,[31],> 100 µM (inactive)
same,GI50,[32],> 100 µM (inactive)
same,GI50,[33],> 100 µM (inactive)
COC(=O)[C@H](Cc1ccccc1)NC(=O)c1ccc(CNC(=O)/C=C/c2csc(-c3ccccc3)n2)cc1,GI50,[34],4.88 µM (inactive)
same,GI50,[35],16.1 µM (inactive)
same,GI50,[36],16.1 µM (inactive)
same,GI50,[37],8.28 µM (inactive)
same,GI50,[38],29.9 µM (inactive)
same,GI50,[1],7.82 µM (inactive)
same,GI50,[39],3.89 µM (inactive)
same,GI50,[2],7.13 µM (inactive)
same,GI50,[40],7.03 µM (inactive)
same,GI50,[41],15.2 µM (inactive)
same,GI50,[5],3.91 µM (inactive)
same,GI50,[6],5.04 µM (inactive)
same,GI50,[7],7.35 µM
same,GI50,[8],0.275 µM (active)
same,GI50,[10],15.3 µM (inactive)
same,GI50,[11],3.88 µM (inactive)
same,GI50,[12],7.38 µM (inactive)
same,GI50,[42],3.21 µM (inactive)
same,GI50,[43],3.46 µM (inactive)
same,GI50,[44],1.93 µM (inactive)
same,GI50,[14],7.87 µM (inactive)
same,GI50,[15],4.91 µM (inactive)
same,GI50,[17],1.84 µM (inactive)
same,GI50,[45],4.5 µM (inactive)
same,GI50,[46],10.9 µM (inactive)
same,GI50,[47],2.83 µM (inactive)
same,GI50,[48],4.45 µM (inactive)
same,GI50,[49],1.75 µM (inactive)
same,GI50,[19],3.24 µM (inactive)
same,GI50,[20],46 µM (inactive)
same,GI50,[50],13.8 µM (inactive)
same,GI50,[21],11.8 µM (inactive)
same,GI50,[51],3.24 µM (inactive)
same,GI50,[52],21.2 µM (inactive)
same,GI50,[22],5.33 µM (inactive)
same,GI50,[23],24 µM (inactive)
same,GI50,[24],38.5 µM (inactive)
same,GI50,[25],11.1 µM (inactive)
same,GI50,[53],6.87 µM (inactive)
same,GI50,[54],7.74 µM (inactive)
same,GI50,[55],8.02 µM (inactive)
same,GI50,[56],7.6 µM (inactive)
same,GI50,[26],7.28 µM (inactive)
same,GI50,[57],2.04 µM (inactive)
same,GI50,[58],3.18 µM (inactive)
same,GI50,[27],2.81 µM (inactive)
same,GI50,[59],4.22 µM (inactive)
same,GI50,[60],23.7 µM (inactive)
same,GI50,[28],8.91 µM (inactive)
same,GI50,[29],11.8 µM (inactive)
same,GI50,[61],11 µM (inactive)
same,GI50,[30],1.11 µM (active)
same,GI50,[31],7.33 µM (inactive)
same,GI50,[62],2.72 µM (inactive)
same,GI50,[63],19.3 µM (inactive)
same,GI50,[64],8.11 µM (inactive)
same,GI50,[32],1.93 µM (inactive)
same,GI50,[65],14.6 µM (inactive)
same,GI50,[33],8.2 µM (inactive)
CC(NC1CCCC[C@H]1O)c1ccccc1 (stereo partly drawn),GI50,[34],> 100 µM (inactive)
same,GI50,[36],> 100 µM (inactive)
same,GI50,[37],> 100 µM (inactive)
same,GI50,[1],> 100 µM (inactive)
same,GI50,[2],> 100 µM (inactive)
same,GI50,[66],> 100 µM (inactive)
same,GI50,[5],> 100 µM (inactive)
same,GI50,[6],> 100 µM (inactive)
same,GI50,[9],> 100 µM (inactive)
same,GI50,[10],> 100 µM (inactive)
same,GI50,[11],> 100 µM (inactive)
same,GI50,[12],> 100 µM (inactive)
same,GI50,[43],> 100 µM (inactive)
same,GI50,[13],> 100 µM (inactive)
same,GI50,[16],> 100 µM (inactive)
same,GI50,[17],> 100 µM (inactive)
same,GI50,[18],> 100 µM (inactive)
same,GI50,[49],> 100 µM (inactive)
same,GI50,[19],> 100 µM (inactive)
same,GI50,[20],> 100 µM (inactive)
same,GI50,[21],> 100 µM (inactive)
same,GI50,[23],> 100 µM (inactive)
same,GI50,[24],> 100 µM (inactive)
same,GI50,[54],> 100 µM (inactive)
same,GI50,[58],> 100 µM (inactive)
same,GI50,[27],> 100 µM (inactive)
same,GI50,[59],> 100 µM (inactive)
same,GI50,[60],> 100 µM (inactive)
same,GI50,[29],> 100 µM (inactive)
same,GI50,[61],> 100 µM (inactive)
same,GI50,[67],> 100 µM (inactive)
same,GI50,[31],> 100 µM (inactive)
same,GI50,[64],> 100 µM (inactive)
same,GI50,[32],> 100 µM (inactive)
same,GI50,[65],> 100 µM (inactive)
same,GI50,[33],> 100 µM (inactive)
